The test system of one data set is S1974 (human CYP2C19). The data set is described as follows: Herbicide tolerance assay for transformants. The format is in vivo, Solanum tuberosum cv. MayQueen. The note with it: acetochlor 20 μmol, atrazine 1.2 μmol, metolachlor 30 μmol dispersed. From the text: Then, herbicides were dispersed.
The next data set concerns non-transformed MayQueen. Kind of data set: Assay for herbicide resistance, non-transformed potato. It counts as in vivo. On the set-up: key: 1: alomost dead; 2: severely inhibited growth; 3: slightly inferior growth; 4: the same growth as that when herbicide was not dispersed. Conditions: 14 days after dispersal. From the text:
4, the same growth as that when herbicide was not dispersed.

The subject of data set [1] is leaves of potato individuals expressing three types of P450. Kind of data set: 7-ethoxycoumarin O-deethylation activity in leaves of kanamycin-resistant individuals. The format is in vivo, Solanum tuberosum cv. MayQueen. Conditions: leaves cultured with 7-ethoxycoumarin for 3 days. The procedure: Leaves of the kanamycin-resistant individuals (0.1 g) were cultured in 5 ml of a liquid medium containing 2% sucrose with 100 μl of 20 mM 7-ethoxycoumarin for 3 days. Then, the leaves were crushed in 500 μl of 0.1 M potassium phosphate buffer (pH 7.4), and chloroform was added to the supernatant and mixed. To the chloroform layer, 0.01 N NaOH/0.1 M NaCl was added, and measurement was performed at excitation wavelength of 366 nm and at emission of 452 nm with the Hitachi fluorometer. […] Each of CYP1A1-expressing individual S1965, and CYP2B6-expressing individual S1972 was selected in the same manner.

The target in another data set is T1, Human CYP2B6 (Homo sapiens, UniProt P20813).
T1 sequence (P20813 1-491): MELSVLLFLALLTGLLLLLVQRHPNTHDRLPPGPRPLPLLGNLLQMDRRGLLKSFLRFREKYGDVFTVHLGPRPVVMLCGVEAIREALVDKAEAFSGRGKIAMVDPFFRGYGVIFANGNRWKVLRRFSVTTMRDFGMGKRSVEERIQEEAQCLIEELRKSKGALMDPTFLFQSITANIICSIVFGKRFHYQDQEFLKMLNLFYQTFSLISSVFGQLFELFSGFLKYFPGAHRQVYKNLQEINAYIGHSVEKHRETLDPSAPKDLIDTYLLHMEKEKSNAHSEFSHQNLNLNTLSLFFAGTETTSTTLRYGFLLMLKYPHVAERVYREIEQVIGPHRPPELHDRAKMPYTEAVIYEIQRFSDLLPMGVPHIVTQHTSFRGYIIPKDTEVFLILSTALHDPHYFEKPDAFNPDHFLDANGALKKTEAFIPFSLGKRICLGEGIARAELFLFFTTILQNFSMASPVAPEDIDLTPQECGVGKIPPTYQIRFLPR
Kind of data set: Metabolism of herbicides in microsomes of recombinant yeast expressing human P450. The method, then: The reaction was carried out in a range of temperature suitable for an organism from which a p450 molecular species is derived (for example, 37° C. for human P450), by mixing with air while vigorously shaking, within a period during which an enzyme is not inactivated (for example, for 10 to 60 min).
From the height of the peak, a metabolized amount can be obtained.
To 0.1 M potassium phosphate buffer (pH 7.4), the microsomal fraction prepared from each of yeast strains respectively expressing one of 11 human P450 molecular species (obtained from Sumitomo Chemical) was added so that the amount of the p450 would be 25 pmol. Furthermore, 0.5 mM NADPH, 5 mM glucose 6 phosphate, 1 U/ml glucose 6 phosphate dehydrogenase, and 0.1 mM each of the following herbicides (those available in the market were used) were added at the final concentrations thereto to make the total volume of 100 μl. The reaction mixture was shaken at 37° C. for 60 min, and an organic solvent was added thereto for the extraction. The extract was applied to the high performance liquid chromatography, and the metabolite was measured.

Another data set concerns the target Human CYP2C9 (Homo sapiens, UniProt P11712). Kind of data set: Herbicide metabolism by human P450 molecular species (microsomal fraction). It counts as in vitro ADME.
Data set [2] concerns seeds of Nipponbare into which the gene was not introduced. Kind of data set: Germination assay for herbicide resistance, non-introduced rice seeds. It counts as in vivo, rice (Nipponbare). The note with it: […] metolachlor, […] alachlor, 15 μM triflurarin; after about 4 to 7 days.
Data set [3] deals with T2, microsomal fraction of S1974 (human CYP2C19) (Homo sapiens, UniProt P33261).
T2 construct: expressed in transfected cells; host or cells: transgenic potato (Solanum tuberosum cv. MayQueen) line S1974, plasmid pUHC19, microsomal fraction
The data set is described as follows: 7-ethoxyresorufin O-deethylation activity using a microsomal fraction. The format is biochemical. The procedure:
(§1) A reaction was initiated by adding 7-ethoxyresorufin to the concentration of 10 μM to a reaction solution containing 0.1 M potassium phosphate buffer (pH 7.4), 3 mM NADPH, and 1 mg/ml microsomal fractions at the final concentrations. The mixture was incubated at 37° C. for 30 min, ice-cooled acetone was added thereto, and allowed to stand on ice for 10 min. The supernatant was measured using the fluorometer (excitation wavelength of 550 nm, and emission of 586 nm).
(§2) Inhibition of activity by addition of carbon monoxide and absence of NADPH indicated P450-dependency. On the other hand, an increased activity was not observed in S1972 or S1974. […] In the table, “EROD activity” of (a) indicates 7-ethoxyresorufin O-deethylase activity (pmol/min/mg of protein) and means±standard deviations in three independent experiments. In (b), the values indicate the activities in the presence of carbon monoxide. In (c), the values indicate the activities in the absence of NADPH.

The target of data set [4] is T3, microsomal fraction of S1972 (human CYP2B6) (Homo sapiens, UniProt P20813).
T3 construct: expressed in transfected cells; host or cells: transgenic potato (Solanum tuberosum cv. MayQueen) line S1972, plasmid pUHB6, microsomal fraction
Described as above. The format is biochemical. The procedure:
as §1, §2

Data set [5] has as its target T4, microsomal fraction of T1977 (human CYP1A1, CYP2B6, CYP2C19) (Homo sapiens, UniProt P04798).
T4 construct: expressed in transfected cells; host or cells: transgenic potato (Solanum tuberosum cv. MayQueen) line T1977, plasmid pIKBAC, microsomal fraction
T4 sequence (P04798 1-512): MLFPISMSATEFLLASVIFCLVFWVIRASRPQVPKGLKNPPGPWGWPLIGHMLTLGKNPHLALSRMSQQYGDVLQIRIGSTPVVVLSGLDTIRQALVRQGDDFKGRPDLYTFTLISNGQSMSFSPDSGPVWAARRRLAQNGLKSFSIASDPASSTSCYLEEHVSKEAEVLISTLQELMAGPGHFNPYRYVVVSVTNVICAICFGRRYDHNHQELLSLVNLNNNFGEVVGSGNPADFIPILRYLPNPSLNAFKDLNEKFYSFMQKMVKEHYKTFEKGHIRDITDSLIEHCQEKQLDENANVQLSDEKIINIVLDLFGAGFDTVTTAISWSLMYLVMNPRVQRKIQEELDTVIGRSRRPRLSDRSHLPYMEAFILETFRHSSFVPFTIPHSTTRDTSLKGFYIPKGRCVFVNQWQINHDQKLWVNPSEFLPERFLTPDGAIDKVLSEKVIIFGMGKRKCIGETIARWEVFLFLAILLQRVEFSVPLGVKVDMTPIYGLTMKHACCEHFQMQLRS
The data set is described as above. The format is biochemical. The procedure: as §1, §2

Data set [6] has as its target T5, microsomal fraction of S1965 (human CYP1A1) (Homo sapiens, UniProt P04798).
T5 construct: expressed in transfected cells; host or cells: transgenic potato (Solanum tuberosum cv. MayQueen) line S1965, plasmid pUHA1, microsomal fraction
T5 sequence (P04798 1-512): T4 sequence (P04798 1-512)
Described as above. The format is biochemical. The procedure:
as §1, §2

Data set [7] deals with microsomal fraction of Control plants. The data set is described as above. The format is biochemical, Solanum tuberosum cv. MayQueen. The procedure: as §1, §2
The target of another data set is T6, Human CYP1A1 (Homo sapiens, UniProt P04798).
T6 construct: purchased Sumitomo Chemical; host or cells: recombinant yeast, microsomal fraction
T6 sequence (P04798 1-512): T4 sequence (P04798 1-512)
The data set is described as follows: Metabolism of herbicides in microsomes of recombinant yeast expressing human P450. It counts as in vitro ADME.

[8] abbreviates: 10 μM 7-ethoxyresorufin, means±standard deviations in three independent experiments.

T2 sequence (P33261 whole entry): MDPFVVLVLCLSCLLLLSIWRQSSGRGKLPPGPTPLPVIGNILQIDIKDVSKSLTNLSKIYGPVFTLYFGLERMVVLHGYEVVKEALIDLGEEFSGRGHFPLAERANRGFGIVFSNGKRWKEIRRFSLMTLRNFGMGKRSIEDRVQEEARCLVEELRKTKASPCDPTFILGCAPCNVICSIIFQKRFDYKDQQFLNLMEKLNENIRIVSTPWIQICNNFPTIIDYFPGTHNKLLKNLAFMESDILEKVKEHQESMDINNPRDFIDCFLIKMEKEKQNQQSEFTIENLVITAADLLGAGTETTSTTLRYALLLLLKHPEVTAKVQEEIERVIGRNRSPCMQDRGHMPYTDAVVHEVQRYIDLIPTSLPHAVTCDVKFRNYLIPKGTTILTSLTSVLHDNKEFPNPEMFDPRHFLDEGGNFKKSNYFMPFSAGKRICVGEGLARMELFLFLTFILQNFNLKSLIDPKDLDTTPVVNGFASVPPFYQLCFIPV
Human CYP2C9, sequence (P11712 whole entry): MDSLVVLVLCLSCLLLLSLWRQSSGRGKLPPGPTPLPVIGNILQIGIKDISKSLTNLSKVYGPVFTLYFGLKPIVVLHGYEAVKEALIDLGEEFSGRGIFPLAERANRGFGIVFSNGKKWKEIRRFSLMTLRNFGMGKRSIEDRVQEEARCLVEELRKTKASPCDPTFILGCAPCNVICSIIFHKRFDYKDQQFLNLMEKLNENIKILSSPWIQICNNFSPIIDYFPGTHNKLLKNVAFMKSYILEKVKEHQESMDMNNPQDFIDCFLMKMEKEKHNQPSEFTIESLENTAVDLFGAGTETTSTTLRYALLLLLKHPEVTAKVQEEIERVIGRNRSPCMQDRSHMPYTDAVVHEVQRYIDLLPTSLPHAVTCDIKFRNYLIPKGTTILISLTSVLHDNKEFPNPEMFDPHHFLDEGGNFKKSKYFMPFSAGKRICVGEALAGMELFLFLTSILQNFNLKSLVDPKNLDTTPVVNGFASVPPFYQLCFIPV

On to `CCOCN(C(=O)CCl)c1c(C)cccc1CC` [acetochlor], for which, in the data set on S1974 (human CYP2C19), the “resistance of the transformant to the herbicide” value is “strong resistance”. Besides, the Resistance to herbicide is 2 in the data set on non-transformed MayQueen (Acetochlor 5 μmol/pot), 2 in the data set on non-transformed MayQueen (Acetochlor 10 μmol/pot) and 1 in the data set on non-transformed MayQueen (Acetochlor 15 μmol/pot).
For `CCOc1ccc2ccc(=O)oc2c1` [7-ethoxycoumarin], the “7-ethoxycoumarin O-deethylation activity” value in data set [1] (individual T1977) and in data set [1] (individual T1979) was “higher activity than the control” in each case.
As for `CCS(=O)(=O)Oc1ccc2c(c1)C(C)(C)CO2` [benfuresate], the metabolic reaction confirmed entry on Human CYP2B6 is listed as “O-deethylation, hydroxylation”.
`COc1cc(OC)nc(NC(=O)NS(=O)(=O)c2c(Cl)nc3ccccn23)n1` [imazosulfuron]: at Human CYP2C9, the metabolic reaction confirmed entry is “ring hydroxylation”.
Regarding `CCc1cccc(CC)c1N(COC)C(=O)CCl` [alachlor], at Human CYP2B6, the metabolic reaction confirmed result is “O-deethylation, O-demethylation”. Also, the Germination of seeds result in data set [2] is listed as “inhibited”.
On to `CCOc1ccc2nc3ccc(=O)cc-3oc2c1` [7-ethoxyresorufin], for which the “increased 7-ethoxyresorufin O-deethylation activity” value in data set [3] and in data set [4] was “not observed” throughout. For the same compound, the EROD activity in data set [3] (setting [8]) is on record as 0.14 ± 0.03 pmol/min/mg of protein; in [4] (setting [8]), 0.12 ± 0.03 pmol/min/mg of protein; in data set [5] (setting [8]), 2.92 ± 0.72 pmol/min/mg of protein; in data set [6] (setting [8]) it was 5.78 ± 0.51 pmol/min/mg of protein; in data set [7] (setting [8]), 0.11 ± 0.01 pmol/min/mg of protein. In addition, the results for the “7-ethoxyresorufin O-deethylation activity, times higher than the controls” value in data set [5] and in data set [6] were “about 27 times” and ~53 times, respectively. The entries for the “-NADPH (Inhibition rate)” value in data set [5], in data set [6] and in [7] were 99%, 99% and 82%, respectively. The “CO (Inhibition rate)” value in data set [5] is given as 76%; in [6] it was 77%; in data set [7] it was 45%. The “EROD activity in the absence of NADPH” value is listed as 0.02 pmol/min/mg of protein in data set [5] (-NADPH), 0.06 pmol/min/mg of protein in data set [6] (-NADPH) and 0.02 pmol/min/mg of protein in [7] (-NADPH). For the same compound, the “EROD activity in the presence of carbon monoxide” value was 0.69 pmol/min/mg of protein in [5] (CO), 1.33 pmol/min/mg of protein in [6] (CO) and 0.06 pmol/min/mg of protein in [7] (CO).
Consider `CCNc1nc(Cl)nc(NC(C)C)n1` [atrazine], for which, in the data set on S1974 (human CYP2C19), the “resistance of the transformant to the herbicide” value is reported as “strong resistance”. The metabolic reaction confirmed entry on Human CYP1A1 is recorded as “N-deethylation, N-deisopropylation”.
With `CCOC1Oc2ccc(OS(C)(=O)=O)cc2C1(C)C` (stereo not shown) [ethofumesate], on Human CYP2B6, the metabolic reaction confirmed entry was “O-deethylation, hydroxylation”.
As to `CCCN(CCC)c1c([N+](=O)[O-])cc(C(F)(F)F)cc1[N+](=O)[O-]` [triflurarin], on Human CYP2B6, the metabolic reaction confirmed entry is given as “O-demethylation”. In addition, the Germination of seeds result in [2] is “inhibited”.
For `Cc1ccc(NC(=O)N(C)C)cc1Cl` [chlorotoluron], the metabolic reaction confirmed entry at Human CYP1A1 was “N-demethylation, ring hydroxylation”.
On the same count and under the same terms, with `CO/N=C(/C)c1cccc(Oc2nc(OC)cc(OC)n2)c1C(=O)OC` [pyriminobac-methyl] the entry was “hydroxylation”.
Still for that read-out and setting: with `CNc1cnn(-c2cccc(C(F)(F)F)c2)c(=O)c1Cl` [norflurazon] the entry was “N-demethylation”.
The same measure, in the same setting: with `CNC(=O)N(C)c1nc2ccccc2s1` [methabenzthiazuron] the entry was “N-demethylation, ring hydroxylation”.

(Values after patent US6613961B1, “Plants capable of metabolizing drugs and use thereof” (priority 1998, dated 2003).)
